Measurements published in ChEMBL document CHEMBL1126337, “Cholecystokinin analogues: The ergopeptine alkaloids as models of the active conformation of CCK” (Bioorg Med Chem Lett, 1992).
pIC50: −log10 of the molar value. Peptide text beside a SMILES is read from it. * marks the point of attachment. NHPhenethyl = c1ccc(CCN*)cc1; Boc = CC(C)(C)OC(=O)*

What was measured:
[1] = biological target: T1, Gastrin/cholecystokinin type B receptor (Mus musculus, UniProt P56481); assay: Concentration of compound required to inhibit binding of [125I]J-BH-CCK-8 radioligand to CCKB in mouse fore brain membranes; assay type: cell membranes, Membrane
T1 sequence (P56481 whole entry): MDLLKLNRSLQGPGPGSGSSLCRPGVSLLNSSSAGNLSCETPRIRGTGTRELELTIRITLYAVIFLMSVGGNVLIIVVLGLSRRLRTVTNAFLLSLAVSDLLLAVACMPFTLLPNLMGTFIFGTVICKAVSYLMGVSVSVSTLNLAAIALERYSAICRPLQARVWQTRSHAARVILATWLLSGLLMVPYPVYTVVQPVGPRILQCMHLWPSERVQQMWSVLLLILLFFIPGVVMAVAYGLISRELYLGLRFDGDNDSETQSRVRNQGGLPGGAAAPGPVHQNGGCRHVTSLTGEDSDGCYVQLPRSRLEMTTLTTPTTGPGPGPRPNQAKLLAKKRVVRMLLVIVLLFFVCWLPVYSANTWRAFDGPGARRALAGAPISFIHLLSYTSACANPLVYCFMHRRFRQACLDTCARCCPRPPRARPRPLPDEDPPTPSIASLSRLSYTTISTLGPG

[2] = biological target: T2, Cholecystokinin receptor type A (Mus musculus, UniProt O08786); assay: Concentration of compound required to inhibit binding of [125I]J-BH-CCK-8 radioligand to CCKA in mouse pancreatic membranes; assay type: cell membranes
T2 sequence (O08786 whole entry): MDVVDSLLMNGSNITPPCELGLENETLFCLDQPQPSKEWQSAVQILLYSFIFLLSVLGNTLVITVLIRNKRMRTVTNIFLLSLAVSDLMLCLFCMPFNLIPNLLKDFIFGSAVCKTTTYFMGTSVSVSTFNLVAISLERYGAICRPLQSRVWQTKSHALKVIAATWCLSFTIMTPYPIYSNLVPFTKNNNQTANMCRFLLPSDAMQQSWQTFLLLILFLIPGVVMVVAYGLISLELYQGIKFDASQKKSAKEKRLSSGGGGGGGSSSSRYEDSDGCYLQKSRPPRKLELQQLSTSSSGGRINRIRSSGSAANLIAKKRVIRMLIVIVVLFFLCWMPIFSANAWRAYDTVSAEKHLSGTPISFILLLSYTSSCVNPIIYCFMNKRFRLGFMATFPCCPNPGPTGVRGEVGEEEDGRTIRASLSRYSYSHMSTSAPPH

Row | SMILES | pIC50 [1] | pIC50 [2]
1 | C[C@H](NC(=O)C1C=C2c3cccc4[nH]cc(c34)CC2N(C)C1)C(=O)NCCc1ccccc1 (stereo not given in full) | < 4.10 | 4.92
2 | CC(C)C[C@H](NC(=O)[C@H](Cc1c[nH]c2ccccc12)NC(=O)OC(C)(C)C)C(=O)N[C@@H](CC(=O)O)C(=O)NCCc1ccccc1 (Boc-Trp-Leu-Asp-NHPhenethyl) | 6.46 | 5.46
3 | CN1C[C@H](C(=O)N[C@]2(C)O[C@@]3(O)[C@@H]4CCCN4C(=O)[C@H](Cc4ccccc4)N3C2=O)C[C@@H]2c3cccc4[nH]cc(c34)C[C@H]21 [DIHYDROERGOTAMINE] | 4.64 | < 4.10
4 | CC(C)C[C@H]1C(=O)N2CCC[C@H]2[C@]2(O)O[C@](NC(=O)[C@@H]3C=C4c5cccc6[nH]cc(c56)C[C@H]4N(C)C3)(C(C)C)C(=O)N12 [ERGOCRYPTINE] | < 4.10 | < 4.10
5 | CN1C[C@H](C(=O)N[C@]2(C)O[C@@]3(O)[C@@H]4CCCN4C(=O)[C@H](Cc4ccccc4)N3C2=O)C=C2c3cccc4[nH]cc(c34)C[C@H]21 [ERGOTAMINE] | 4.77 | 4.47
